Measured values published in patent US10363231B2, “Compounds and methods of treating ocular disorders” (CASE WESTERN RESERVE UNIVERSITY, priority 2014, dated 2019).

Columns and labels:
LRAT = molecular target: T1, LRAT (Bos taurus, UniProt Q9BGL2); assay: LRAT activity assay with bovine RPE microsomes (esterification of the corresponding primary alcohols); assay type: biochemical; conditions: percentage of the corresponding primary alcohol esterified by LRAT in 1 h at 37° C; 10 μM; RPE microsomes
T1 construct: incubated with RPF microsomes that served as a source of LRAT enzymatic activity; from tissue; host or cells: bovine retinal pigment epithelium (RPE) microsomes
T1 sequence (Q9BGL2 1-230): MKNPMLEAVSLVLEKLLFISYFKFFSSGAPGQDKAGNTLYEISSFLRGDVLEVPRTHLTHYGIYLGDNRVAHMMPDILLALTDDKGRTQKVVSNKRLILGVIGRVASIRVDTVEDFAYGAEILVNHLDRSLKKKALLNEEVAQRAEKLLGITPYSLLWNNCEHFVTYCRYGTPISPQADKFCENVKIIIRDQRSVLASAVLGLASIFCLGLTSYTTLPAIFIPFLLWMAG
Procedure: (§1) Bovine RPE microsomes were isolated from RPE homogenates by differential centrifugation as previously described. The resulting microsomal precipitate was resuspended in 10 mM Bis-Tris propane/HCl buffer, pH 7.4, to achieve a total protein concentration of […]. Then the mixture was placed in a quartz cuvette and irradiated for 6 min at 4° C. with a ChromatoUVE transilluminator (model TM-15; UVP) to eliminate residual retinoids. After irradiation, DTT was added to the RPE microsomal mixture to achieve a final concentration of 5 mM.
Two μl of a synthesized primary alcohol or amine dissolved in DMF (final concentration 10 μM) and 2 μl of 1,2-diheptanoyl-sn-glicerol-3-phosphocholine (water, final concentration 1 mM) were added to 200 μl of 10 mM Bis-Tris propane/HCl buffer, pH 7.4, containing 150 μg of RPE microsomes and 1% (v/w) BSA. The resulting mixture was incubated at 37° C. for 1 h. The reaction was quenched by adding 300 μl of methanol. Most reaction products were extracted with 300 μl of hexanes, except for products from the QEA-C-006 and QEA-G groups which were extracted by adding 300 μl of ethyl acetate and 300 μl of water.
Reaction products were separated and quantified by normal phase HPLC (Agilent Sil 5 μm, 4.6 mm×250 mm) in stepwise gradient of ethyl acetate in hexanes (0-15 min, 10%; 20-30 min, 30%) at a flow rate of 1.4 ml·min^−1.
The properties of retinoid derivatives were examined by two standard enzymatic tests, the […] and retinoid isomerization assays. To identify substrates of LRAT, aldehydes were reduced by sodium borohydrate to their corresponding primary alcohols that then were directly used in the esterification assay (FIG. 2B).
The alcohols were incubated with RPF microsomes that served as a source of LRAT enzymatic activity. Products of the enzymatic reaction as well as the remaining substrates were extracted with organic solvents and analyzed by HPLC. The ratio between a substrate and its esterified form was used to measure enzymatic activity efficiency, based on equivalent UV absorption of the substrate and product at their specific UV maxim wavelengths. Compounds classified as ‘good’ LRAT substrates converted at least 50% of their available alcohol substrates into corresponding esters under these experimental conditions, whereas marginal LRAT substrates were converted at less than 5%. Alcohols with a 5-50% conversion ratio were classified as weak substrates. Among 35 tested compounds, 23 were categorized as good and 9 as weak substrates; 3 compounds were not esterified by LRAT (Table 1 and FIG. 2C). […] Moreover, breaking double bond conjugation along the polyene chain or deletion of a C9 and/or a C13 methyl group also was allowed.

RPE65 = molecular target: T2, RPE65 (Bos taurus, UniProt Q28175); assay: Retinoid isomerase activity assay (11-cis-retinol production in RPE microsomes); assay type: biochemical, Bovine; conditions: for IC50: primary amine, decline in 11-cis-retinol production in RPE microsomes, read-out: Inhibition of RPE65
T2 construct: from tissue; host or cells: bovine retinal pigment epithelium (RPE) microsomes
T2 sequence (Q28175 whole entry): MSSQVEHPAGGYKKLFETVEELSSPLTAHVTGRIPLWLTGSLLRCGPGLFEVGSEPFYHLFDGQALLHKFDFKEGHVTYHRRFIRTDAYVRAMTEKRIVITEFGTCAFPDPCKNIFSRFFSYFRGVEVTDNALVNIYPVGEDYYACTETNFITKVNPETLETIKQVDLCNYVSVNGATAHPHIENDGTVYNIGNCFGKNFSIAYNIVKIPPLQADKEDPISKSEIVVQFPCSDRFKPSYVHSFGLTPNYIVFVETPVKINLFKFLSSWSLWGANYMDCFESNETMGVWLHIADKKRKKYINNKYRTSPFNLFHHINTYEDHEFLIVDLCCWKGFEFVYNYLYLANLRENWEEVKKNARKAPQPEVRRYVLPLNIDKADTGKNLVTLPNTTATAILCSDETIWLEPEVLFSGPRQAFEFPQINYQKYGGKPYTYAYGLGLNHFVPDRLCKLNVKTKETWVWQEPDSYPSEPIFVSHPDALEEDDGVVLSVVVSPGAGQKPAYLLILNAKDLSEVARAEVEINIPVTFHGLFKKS
Procedure: as §1
[…] The resulting mixture was pre incubated at room temperature for 5 min. Then 1 μl of all-trans-retinol (in DMF, final concentration 20 μM) was added. The resulting mixture was incubated at 37° C. for 15 min to 2 h. The reaction was quenched by adding 300 μl of methanol, and products were extracted with 300 μl of hexanes. Production of 11-cis-retinol was quantified by normal phase HPLC with 10% (v/v) ethyl acetate in hexanes as the eluent at a flow rate of 1.4 ml·min^−1. Retinoids were detected by monitoring their absorbance at 325 nm and quantified based on a standard curve representing the relationship between the amount of 11-cis-retinol and the area under the corresponding chromatographic peak.
Primary amines of compounds derived from the aldehydes were subsequently tested for their ability to inhibit the RPE65-dependent retinoid isomerization reaction in dose- and time dependent reactions as exemplified by QEB-B-001 (FIG. 3B). Amines were incubated with RPE microsomes in the presence of all-trans-retinol and the 11-cis-retinoid binding protein, CRALBP.
Progress of the enzymatic reaction was monitored by HPLC separation of retinoids and quantification of 11-cis-retinol with a decrease of 11-cis-retinol production reflecting inhibition of RPE65 by a tested amine. […] This moderate inhibition could be enhanced by shortening the polyene chain length (TEA amines) or diminished by introducing an extra positive charge into the tested compounds (QEA-G amines).

[1] = Analysis of retinoid composition in mouse tissues: amide forms in liver by HPLC; assay type: in vivo, mice; conditions: oral gavage; for Protection by amide in liver: 4-week-old Abca4−/−Rdh8−/− mice, dark 24 h, liver extracts by HPLC; for amidation in vivo (accumulation of amide forms in mouse liver): liver HPLC
Procedure: (§2) Abca4^−/−Rdh8^−/− double knockout mice were generated as previously described. Mice were housed in the animal facility at the School of Medicine, Case Western Reserve University, where they were maintained under either complete darkness or in a 12-h light (˜300 lux) and 12-h dark cycle. All tested primary amines were suspended in 100 μl of soybean oil with less than 10% (v/v) DMSO and were administered by oral gavage with a 22-gauge feeding needle. Experimental manipulations in the dark were done under dim red light transmitted through a Kodak No. 1 safelight filter (transmittance >560 nm). All animal procedures and experiments were approved by the Case Western Reserve University Animal Care Committees and conformed to recommendations of the American Veterinary Medical Association Panel on Euthanasia and the Association of Research for Vision and Ophthalmology.
Two mg of primary amines were administered by oral gavage to 4-week-old Abca4^−/−Rdh8^−/− mice, which then were kept in the dark for 24 h. Then mice were euthanized, and their livers were homogenized in 1 ml of 10 mM sodium phosphate buffer, pH 7.4, containing 50% methanol (v/v). The resulting mixture was extracted with 4 ml of hexanes. Extracts were dried in vacuo, and reconstituted in 300 μl of hexanes. 100 μl of this solution was analyzed by HPLC as described above for the LRAT activity assay.
(§3) For practical reasons, only eight of these leading compounds (QEA-B-001-NH2, B-002-NH2, C-001-NH2, C-003-NH2, C006-NH2, E-002-NH2, TEA-B-002-NH2, and C00-2-NH2) along with retinylamine as a control were selected for further testing in Abca4^−/−Rdh8^−/− mice, an animal model for light-induced retinal degeneration (Table 2). Additionally, two novel amines with moderate inhibition of RPE65 (QEA-A-006-NH2 and QEA-B-003-NI 12) and one with strong inhibition (QEA-A-005-NH2) were added to the first test group for comparison. Mice were gavaged with 1 mg of a test compound and then kept in the dark for 24 h prior to being exposed to bright light (˜10,000 lux) for 1 h. Retinal damage was assessed with OCT that measured the thickness of the outer nuclear layer and by quantification of tissue 11-cis retinal levels. An example is shown for imaging results in FIG. 4A and for 11-cis-retinal quantification in FIG. 4B. Additionally, extracts of livers obtained from treated mice were analyzed by HPLC to estimate the amounts of corresponding amides (FIG. 4C).

Abca4^−/−Rdh8^−/− mice = assay: Toxicity in treated Abca4−/−Rdh8−/− mice (Table 2); assay type: in vivo; conditions: 4-week-old Abca4−/−Rdh8−/− mice, oral gavage
Procedure: as §2, §3

SMILES	LRAT Substrate (LRAT) [%]	IC50 (RPE65) [µM]	inhibition of RPE65 (RPE65)	Protection by amide in liver [1]	amidation in vivo (accumulation of amide forms in mouse liver) [1]	Toxicity (Abca4^−/−Rdh8^−/− mice)
CC1=C(/C=C/C(C)=C/C=C/CN)C(C)(C)CCC1O (stereo not drawn) [TEA-A-004-NH2]	90	< 10	–	–	–	–
CC1=C(/C=C/C(C)=C/C=C/CN)C(C)(C)CC(O)C1 (stereo not drawn) [TEA-A-003-NH2]	90	< 10	–	–	–	–
CC(/C=C/C=C(/C=C/c1ccccc1)C(C)(C)C)=C\CN [QEA-C-001-NH2]	50	> 200	did not inhibit	Strong	efficiently converted into amides	Yes
CC1=C(/C=C/C(C)=C/C=C/C(C)=C/C=C/CN)C(C)(C)CC(O)C1 (stereo not drawn) [PEA-A-003-NH2]	90	< 10	–	–	–	–
CC1=C(/C=C/C(C)=C/C=C/C=C/CN)C(C)(C)CCC1 [QEA-A-004-NH2]	100	< 10	–	–	–	–
CC(C)(C)C(=C\C=C\CN)/C=C/C1=CCCCC1 [TEA-B-002-NH2]	10	> 200	did not inhibit	None	not efficiently amidated	Yes
CC1=C(/C=C/C(C)=C/C=C/C(C)=C/CN)C(C)(C)CCC1O (stereo not drawn) [QEA-A-002-NH2]	100	< 10	–	–	–	–
CC1=C(/C=C/C(=C/C=C/C(=C/CN)C(C)(C)C)C(C)(C)C)C(C)(C)CCC1 [QEA-B-004-NH2]	0	–	–	–	–	–
CC(/C=C/C=C1/C=C(C2=CCCCC2)CCC1)=C\CN [QEA-D-001-NH2]	100	> 200	–	–	–	–
COc1ccc(C(=C\C=C\C(C)=C\CN)/C=C/C2=CCCCC2)cc1 [QEA-E-002-NH2]	100	> 200	did not inhibit	Weak	not efficiently amidated	None
CC(C)(C)C(=C\CN)/C=C/C=C(/C=C/C1=CCCCC1)C(C)(C)C [QEA-B-005-NH2]	0	–	–	–	–	–
CC(/C=C/C=C(/C=C/C1=CCCCC1)c1ccccc1)=C\CN [QEA-E-001-NH2]	100	> 200	–	–	–	–
CC(/C=C/C=C1/C=C(C2=COCCC2)CCC1)=C\CN [QEA-D-002-NH2]	100	> 200	–	–	–	–
CC(/C=C/C=C(/c1ccc2ccccc2c1)C(C)(C)C)=C\CN [TEA-C-002-NH2]	20	> 200	did not inhibit	Strong	efficiently converted into amides	Yes
CC(/C=C/C=C(/C=C/c1ccc(Cl)cc1)c1ccccc1)=C\CN [QEA-C-004-NH2]	100	> 200	–	–	–	–
CC(C)(C)C(=C\C=C\CN)/C=C/c1ccc2c(c1)CCCC2 [TEA-C-001-NH2]	0	–	–	–	–	–
CC(/C=C/C=C1/C=C(c2cccnc2)CCC1)=C\CN [QEA-G-001-NH2]	100	10 to 100	–	–	–	–
CC1=C(/C=C/C(C)=C/C=C/CN)C(C)(C)CCC1 [TEA-A-001-NH2]	100	< 10	–	–	–	–
CC(/C=C/C=C(/C=C/c1ccc(C(F)(F)F)cc1)c1ccccc1)=C\CN [QEA-C-003-NH2]	100	> 200	did not inhibit	None	not efficiently amidated	Yes
CC1=C(/C=C/C(=C/C=C/CN)C(C)(C)C)CCCC1 [TEA-B-003-NH2]	20	> 200	–	–	–	–
CC1=C(/C=C/C(C)=C/C=C/C(C)=C/CN)C(C)(C)CC(O)C1 (stereo not drawn) [QEA-A-003-NH2]	100	< 10	–	–	–	–
CC1=C(/C=C/C(C)=C/C=C/C(C)=C/C=C/CN)C(C)(C)CCC1O (stereo not drawn) [PEA-A-002-NH2]	90	< 10	–	–	–	–
CC1=C(/C=C/C(=C/C=C/CN)C(C)(C)C)C(C)(C)CCC1 [TEA-B-001-NH2]	100	> 200	–	–	–	–
CC1=C(/C=C/C(C)=C/C=C/CN)C(C)(C)CC=C1 [TEA-A-002-NH2]	100	< 10	–	–	–	–
CC(/C=C/C=C(/C=C/c1ccc2c(c1)CCCC2)C(C)(C)C)=C\CN [QEA-C-002-NH2]	15	> 200	–	–	–	–
CC1=C(/C=C/C(C)=C/C=C/C(C)=C/C=C/CN)C(C)(C)CCC1 [PEA-A-001-NH2]	100	< 10	–	–	–	–
COc1ccc(C(=C\C=C\C(C)=C\CN)/C=C/c2ccc([N+](=O)[O-])cc2)cc1 [QEA-C-005-NH2]	100	> 200	–	–	–	–
COc1ccc(C(=C\C=C\C(C)=C\CN)/C=C/c2cccnc2)cc1 [QEA-G-002-NH2]	100	10 to 100	–	–	–	–
NC/C=C/C=C(/C=C/C1=CCCCC1)c1ccccc1 [TEA-B-004-NH2]	30	> 200	–	–	–	–
